Patent US9629815B2, “Benzoquinone derivatives for treating oxidative stress disorders” (Edison Pharmaceuticals, Inc., priority 2012, dated 2017)

How the values were obtained:
Type in all cases: cell-based
[1] = test system: Human dermal fibroblasts from Friedreich's Ataxia patients; assay: Rescue of BSO-stressed FRDA fibroblasts (Calcein AM viability); settings: FRDA fibroblasts GM04078, 1 mM BSO, 48 h, read-out: protection against FRDA, EC50
Protocol: Test samples and solvent controls were tested for their ability to rescue FRDA fibroblasts stressed by addition of L-buthionine-(S,R)-sulfoximine (BSO), as described in Jauslin et al., Hum. Mol. Genet. 11(24):3055 (2002), Jauslin et al., FASEB J. 17:1972-4 (2003), and International Patent Application WO 2004/003565. […] This specific BSO-mediated cell death can be prevented by administration of antioxidants or molecules involved in the antioxidant pathway, such as alpha-tocopherol, selenium, or small molecule glutathione peroxidase mimetics. However, antioxidants differ in their potency, i.e. the concentration at which they are able to rescue BSO-stressed FRDA fibroblasts.
MEM (a medium enriched in amino acids and vitamins, catalog no. 1-31F24-I) and Medium 199 (M199, catalog no. 1-21F22-I) with Earle's Balanced Salts, without phenol red, were purchased from Bioconcept. Fetal Calf Serum was obtained from PAA Laboratories. Basic fibroblast growth factor and epidermal growth factor were purchased from PeproTech. 2,3,5-trimethyl-6-(12-hydroxy-5,10-dodecadiynyl)-1,4-benzoquinone, penicillin-streptomycin-glutamine mix, L-buthionine (S,R)-sulfoximine, and insulin from bovine pancreas were purchased from Sigma. Calcein AM was purchased from Molecular Probes. […]

[2] = test system: human dermal fibroblasts from LHON patients; assay: Rescue of fibroblasts from LHON patients from oxidative stress; settings: Fibroblast, LHON cells GM03858, screen similar to Example 1, read-out: protection against LHON, EC50
[3] = test system: human dermal fibroblasts from Huntington's patients; assay: Rescue of fibroblasts from Huntington's patients from oxidative stress; settings: Fibroblast, Huntington's cells GM 04281, screen similar to Example 1, read-out: protection against Huntington's, EC50
[4] = test system: human dermal fibroblasts from Parkinson's Disease patients; assay: Rescue of fibroblasts from Parkinson's Disease patients from oxidative stress; settings: Fibroblast, PD cells AG20439, screen similar to Example 1, read-out: protection against Parkinson's Disease, EC50

Compound: CC1=C(C)C(=O)C(CCCCC#CCCCC#CCO)=C(C)C1=O [2,3,5-trimethyl-6-(12-hydroxy-5,10-dodecadiynyl)-1,4-benzoquinone]
- EC50 [1]: < 100 nM
- EC50 [2]: < 100 nM
- EC50 [3]: < 50 nM
- EC50 [4]: < 100 nM
